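All cell lines were grown in 96-well plates and treated with compound for 48 hours. GI50: concentration for 50% inhibition of growth.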 Active and inactive are the calls of the source. Cut-off read from the data, not from the text of the source: active = GI50 up to about 1.1 µM and inactive = higher.
Columns and labels:
Assay in all cases: growth of human tumour cells (NCI), 48 h
RPMI-8226 = test system: RPMI-8226
NCI-H522 = test system: NCI-H522
786-0 = test system: 786-0
UACC-62 = test system: UACC-62
CCRF-CEM = test system: CCRF-CEM
HOP-62 = test system: HOP-62
SN12C = test system: SN12C
BT-549 = test system: BT-549
OVCAR-5 = test system: OVCAR-5
OVCAR-8 = test system: OVCAR-8
MCF7 = test system: MCF7
CAKI-1 = test system: CAKI-1
HCT-116 = test system: HCT-116
SNB-19 = test system: SNB-19
SR = test system: SR
HCT-15 = test system: HCT-15
SK-MEL-2 = test system: SK-MEL-2
HCC 2998 = test system: HCC 2998
MDA-MB-435 = test system: MDA-MB-435
Hs-578T = test system: Hs-578T
COLO 205 = test system: COLO 205
DU-145 = test system: DU-145
IGROV-1 = test system: IGROV-1
A549 = test system: A549
EKVX = test system: EKVX
HT-29 = test system: HT-29
MDA-N = test system: MDA-N
RXF 393 = test system: RXF 393
SF-539 = test system: SF-539
SF-295 = test system: SF-295
TK-10 = test system: TK-10
Malme-3M = test system: Malme-3M
SK-MEL-28 = test system: SK-MEL-28
SF-268 = test system: SF-268
UO-31 = test system: UO-31
MOLT-4 = test system: MOLT-4
U-251 = test system: U-251
SNB-75 = test system: SNB-75
M14 = test system: M14
SW-620 = test system: SW-620
MDA-MB-231 = test system: MDA-MB-231
OVCAR-3 = test system: OVCAR-3
PC-3 = test system: PC-3
KM12 = test system: KM12
SK-MEL-5 = test system: SK-MEL-5
NCI-H460 = test system: NCI-H460
SK-OV-3 = test system: SK-OV-3
K562 = test system: K562
NCI-H23 = test system: NCI-H23
HOP-92 = test system: HOP-92
UACC-257 = test system: UACC-257
ACHN = test system: ACHN
LOX IMVI = test system: LOX IMVI
NCI/ADR-RES = test system: NCI/ADR-RES
OVCAR-4 = test system: OVCAR-4

For CCOC(=O)c1nc2c3c(ncn2n1)Oc1c(c(-c2ccccc2)nn1-c1ccccc1)C3c1ccc(OC)c(OC)c1 (stereo not given), the GI50 (RPMI-8226) was 25.9 µM (inactive), the GI50 (NCI-H522) was > 100 µM (inactive) and the GI50 (786-0) was 31 µM (inactive). The GI50 (UACC-62) was 48.6 µM (inactive), the GI50 (CCRF-CEM) was > 100 µM (inactive) and the GI50 (HOP-62) was 16.3 µM (inactive). The GI50 (SN12C) was > 100 µM (inactive), the GI50 (BT-549) was 36.3 µM (inactive) and the GI50 (OVCAR-5) was > 100 µM (inactive). The GI50 (OVCAR-8) was 25.9 µM (inactive), the GI50 (MCF7) was > 100 µM (inactive) and the GI50 (CAKI-1) was 50.1 µM (inactive). The GI50 (HCT-116) was 65.2 µM (inactive), the GI50 (SNB-19) was 24.3 µM (inactive) and the GI50 (SR) was 51.8 µM (inactive). For the same molecule, the GI50 (HCT-15) was greater than 100 µM, the GI50 (SK-MEL-2) was > 100 µM (inactive) and the GI50 (HCC 2998) was > 100 µM (inactive). For the same molecule, the GI50 (MDA-MB-435) was > 100 µM (inactive), the GI50 (Hs-578T) was 12.4 µM (inactive) and the GI50 (COLO 205) was > 100 µM (inactive). The GI50 (DU-145) was > 100 µM (inactive), the GI50 (IGROV-1) was 52.1 µM (inactive) and the GI50 (A549) was 59.2 µM (inactive). For the same molecule, the GI50 (EKVX) was 50.4 µM (inactive), the GI50 (HT-29) was > 100 µM (inactive) and the GI50 (MDA-N) was > 100 µM (inactive). The GI50 (RXF 393) was 23.4 µM (inactive), the GI50 (SF-539) was 11.9 µM (inactive) and the GI50 (SF-295) was 23.8 µM (inactive). The GI50 (TK-10) was > 100 µM (inactive), the GI50 (Malme-3M) was > 100 µM (inactive) and the GI50 (SK-MEL-28) was 49.2 µM (inactive). For the same molecule, the GI50 (SF-268) was 15.3 µM (inactive), the GI50 (UO-31) was > 100 µM (inactive) and the GI50 (MOLT-4) was > 100 µM (inactive). The GI50 (U-251) was 31.3 µM (inactive), the GI50 (SNB-75) was 31.3 µM (inactive) and the GI50 (M14) was > 100 µM (inactive). The GI50 (SW-620) was > 100 µM (inactive), the GI50 (MDA-MB-231) was 37.2 µM (inactive) and the GI50 (OVCAR-3) was > 100 µM (inactive). For the same molecule, the GI50 (PC-3) was > 100 µM (inactive), the GI50 (KM12) was > 10 µM (inactive) and the GI50 (SK-MEL-5) was 78.9 µM (inactive). For the same molecule, the GI50 (NCI-H460) was 22.3 µM (inactive), the GI50 (SK-OV-3) was 92.9 µM (inactive) and the GI50 (K562) was 7.24 µM (inactive). The GI50 (NCI-H23) was > 100 µM (inactive), the GI50 (HOP-92) was 41.1 µM (inactive) and the GI50 (UACC-257) was > 100 µM (inactive). For the same molecule, the GI50 (ACHN) was 47 µM (inactive), the GI50 (LOX IMVI) was > 100 µM (inactive) and the GI50 (NCI/ADR-RES) was 57.7 µM (inactive). The GI50 (OVCAR-4) was 6.04 µM (inactive).
